“And” between values parts separate entries of the source, which are not always exact repeats. Equal entries are not always repeated. Where two headings read alike, the source gives them in different places.
Tested on: NCI-60 standardized human tumor cell line panel
Assay: cells
Format: cell-based

## COc1cc2cc(C(=O)N3C[C@@H](CCl)c4c3cc(OC(=O)N(CCC(=O)N3CCN(C)CC3)C3CCCCC3)c3ccccc43)[nH]c2c(OC)c1OC [P-CC60-CBI-TMI]
  NCI-60 screening: Log(GI50): -5.81 and -5.62
786-0 (RE) cell line, log10 of GI50 in M
  NCI-60 screening: Log(GI50): -5.76
786-0 (RE) cell line, read-out: NCI-60 screening: Raw GI50
  GI50: 1700 nM
786-0, read-out: GI50
  GI50: 1700 nM
A498 (RE) cell line, log10 of GI50 in M
  NCI-60 screening: Log(GI50): -5.56
A498 (RE) cell line, read-out: NCI-60 screening: Raw GI50
  GI50: 2800 nM
A498, read-out: GI50
  GI50: 2800 nM
A549/ATCC, read-out: GI50
  GI50: 2000 nM
ACHN (RE) cell line, log10 of GI50 in M
  NCI-60 screening: Log(GI50): -6.31
ACHN, read-out: GI50
  GI50: 490 nM
BT-549, read-out: GI50
  GI50: 1600 nM
CAKI-1 (RE) cell line, log10 of GI50 in M
  NCI-60 screening: Log(GI50): -5.83
CAKI-1 (RE) cell line, read-out: NCI-60 screening: Raw GI50
  GI50: 1500 nM
CAKI-1, read-out: GI50
  GI50: 1500 nM
CCRF-CEM, read-out: GI50
  GI50: 990 nM
COLO 205, read-out: GI50
  GI50: 1400 nM
DU-145 (PR) cell line, log10 of GI50 in M
  NCI-60 screening: Log(GI50): -6.34
DU-145, read-out: GI50
  GI50: 460 nM
EKVX, read-out: GI50
  GI50: 1900 nM
HCC-2998, read-out: GI50
  GI50: 1500 nM
HCT-15, read-out: GI50
  GI50: 1700 nM
HCT-116, read-out: GI50
  GI50: 1500 nM
HL-60(TB), read-out: GI50
  GI50: 750 nM
HOP-62, read-out: GI50
  GI50: 590 nM
HOP-92, read-out: GI50
  GI50: 2500 nM
HT29, read-out: GI50
  GI50: 1500 nM
IGROV1 (OV) cell line, log10 of GI50 in M
  NCI-60 screening: Log(GI50): -5.64
IGROV1 (OV) cell line, read-out: NCI-60 screening: Raw GI50
  GI50: 2300 nM
IGROV1, read-out: GI50
  GI50: 2300 nM
K-562, read-out: GI50
  GI50: 680 nM
KM12, read-out: GI50
  GI50: 2100 nM
LOX IMVI, read-out: GI50
  GI50: 1100 nM
M14, read-out: GI50
  GI50: 1500 nM
MALME-3M, read-out: GI50
  GI50: 1600 nM
MCF7, read-out: GI50
  GI50: 320 nM
MDA-MB-435, read-out: GI50
  GI50: 1800 nM
MDA-MB-468, read-out: GI50
  GI50: 690 nM
MOLT-4, read-out: GI50
  GI50: 590 nM
NCI-60 vs ProliFiler, 19 overlapping cell lines
  GI50/IC50, mean: 4.6
NCI-H23, read-out: GI50
  GI50: 470 nM
NCI-H226, read-out: GI50
  GI50: 1400 nM
NCI-H460 (LC) cell line, log10 of GI50 in M
  NCI-60 screening: Log(GI50): -6.29
NCI-H460, read-out: GI50
  GI50: 510 nM
NCI-H522 (LC) cell line, log10 of GI50 in M
  NCI-60 screening: Log(GI50): -5.77
NCI-H522 (LC) cell line, read-out: NCI-60 screening: Raw GI50
  GI50: 1700 nM
NCI-H522, read-out: GI50
  GI50: 1700 nM
OVCAR-3 (OV) cell line, log10 of GI50 in M
  NCI-60 screening: Log(GI50): -5.68
OVCAR-3 (OV) cell line, read-out: NCI-60 screening: Raw GI50
  GI50: 2100 nM
OVCAR-3, read-out: GI50
  GI50: 2100 nM
OVCAR-4 (OV) cell line, log10 of GI50 in M
  NCI-60 screening: Log(GI50): -5.63
OVCAR-4 (OV) cell line, read-out: NCI-60 screening: Raw GI50
  GI50: 2300 nM
OVCAR-4, read-out: GI50
  GI50: 2300 nM
OVCAR-5 (OV) cell line, log10 of GI50 in M
  NCI-60 screening: Log(GI50): -5.29
OVCAR-5, read-out: GI50
  GI50: 5100 nM
OVCAR-8 (OV) cell line, log10 of GI50 in M
  NCI-60 screening: Log(GI50): -5.78
OVCAR-8 (OV) cell line, read-out: NCI-60 screening: Raw GI50
  GI50: 1700 nM
OVCAR-8, read-out: GI50
  GI50: 1700 nM
PC-3 (PR) cell line, log10 of GI50 in M
  NCI-60 screening: Log(GI50): -5.5
PC-3, read-out: GI50
  GI50: 3100 nM
RPMI-8226, read-out: GI50
  GI50: 1500 nM
RXF 393 (RE) cell line, log10 of GI50 in M
  NCI-60 screening: Log(GI50): -5.97
RXF 393 (RE) cell line, read-out: NCI-60 screening: Raw GI50
  GI50: 1100 nM
RXF 393, read-out: GI50
  GI50: 1100 nM
SF-268, read-out: GI50
  GI50: 1500 nM
SF-295, read-out: GI50
  GI50: 1500 nM
SF-539, read-out: GI50
  GI50: 1300 nM
SK-MEL-5, read-out: GI50
  GI50: 1600 nM
SK-MEL-28, read-out: GI50
  GI50: 3600 nM
SK-OV-3 (OV) cell line, log10 of GI50 in M
  NCI-60 screening: Log(GI50): -5.67
SK-OV-3 (OV) cell line, read-out: NCI-60 screening: Raw GI50
  GI50: 2200 nM
SK-OV-3, read-out: GI50
  GI50: 2200 nM
SN12C (RE) cell line, log10 of GI50 in M
  NCI-60 screening: Log(GI50): -5.92

— PMC10141580, “Cyclic Dichalcogenides Extend the Reach of Bioreductive Prodrugs to Harness Thiol/Disulfide Oxidoreductases: Applications to seco-Duocarmycins Targeting the Thioredoxin System” (ACS Central Science, 2023)
